These results are taken from patent US20140323418A1, “SELECTIVE KINASE INHIBITORS” (PORTOLA PHARMACEUTICALS, INC., priority 2011, published 2014).

Usually IC50 stands for the concentration that inhibits the measured activity by half.

The target in this assay is T1, full length active recombinant SYK enzyme (Homo sapiens, UniProt P43405).
T1 construct: full length active recombinant SYK enzyme (Millipore, Calif.); purchased Millipore
The assay can be described thus: Inhibition of Syk tyrosine phosphorylation activity (LANCE TR-FRET kinase assay). In kind it is biochemical. The conditions noted are these: 1 nM SYK, 550 nM substrate, 100 μM ATP, 1 hour room temperature. (Time-resolved FRET reads energy transfer from a long-lived donor to a nearby acceptor.)

Turning to `Cc1ccc(Nc2ncc(C(N)=O)c(N[C@H]3CC[C@H](N)CC3)n2)cc1` [Example 244, 4-(trans-4-aminocyclohexylamino)-2-(p-tolylamino)pyrimidine-5-carboxamide], the IC50 lay in the range of 100 to 1000 nM.

For the compound `Cn1ccc2c(Nc3nc(NC[C@@H](N)CC(F)F)ncc3C(N)=O)ccnc21` [Example 94, (S)-2-(2-amino-4,4-difluorobutylamino)-4-(1-methyl-1H-pyrrolo[2,3-b]pyridin-4-ylamino)pyrimidine-5-carboxamide], the IC50 is 1 to 10 nM.

As to `NC(=O)c1cnc(N[C@@H]2CCCC[C@@H]2N)nc1Nc1ccc2ccncc2c1` [Example 73, 2-((1R,2S)-2-aminocyclohexylamino)-4-(isoquinolin-7-ylamino)pyrimidine-5-carboxamide], the half-inhibitory concentration (IC50) is 10 to 100 nM.

`CCn1ccc2c(Nc3nc(NC[C@@H](N)CC(F)F)ncc3C(N)=O)cccc21` [Example 76, (S)-2-(2-amino-4,4-difluorobutylamino)-4-(1-ethyl-1H-indol-4-ylamino)pyrimidine-5-carboxamide]: the 50% inhibitory concentration (IC50) was in the range of 1 to 10 nM.

Turning to `CCN1CC[C@@H](Nc2ncc(C(N)=O)c(Nc3cccc(-n4nccn4)c3)n2)C1` [Example 223], the IC50 was over 1000 nM.

With `CC[C@@H](Nc1ncc(C(N)=O)c(Nc2cnc3ccccc3c2)n1)C(N)=O` [Example 68, (R)-2-(1-amino-1-oxobutan-2-ylamino)-4-(quinolin-3-ylamino)pyrimidine-5-carboxamide], the IC50 lay within 10 to 100 nM.

For the compound `N#Cc1cccc(Nc2nc(NC[C@@H](N)CC(F)F)ncc2C(N)=O)c1` [Example 82, (S)-2-(2-amino-4,4-difluorobutylamino)-4-(3-cyanophenylamino)pyrimidine-5-carboxamide], the IC50 lay in the range of 100 to 1000 nM.

Turning to `NC(=O)c1cnc(NC[C@@H](N)CC(F)F)nc1Nc1cccc2c1CCN2CC(F)(F)F` [Example 97], the IC50 was 10 to 100 nM.

On to `NC(=O)c1cnc(N[C@@H]2CCCC[C@@H]2N)nc1Nc1ccc(-c2ncco2)cc1` [Example 255, 2-(((1R,2S)-2-aminocyclohexyl)amino)-4-((4-(oxazol-2-yl)phenyl)amino)pyrimidine-5-carboxamide], for which the IC50 lay in the range of 10 to 100 nM.

With `NC(=O)c1cnc(NC[C@@H](N)CC(F)F)nc1Nc1cccc2c1ccn2CC(F)(F)F` [Example 84, (S)-2-(2-amino-4,4-difluorobutylamino)-4-(1-(2,2,2-trifluoroethyl)-1H-indol-4-ylamino)pyrimidine-5-carboxamide], the IC50 was 1 to 10 nM.

Regarding `CCn1ccc2c(Nc3nc(NC4CC4)ncc3C(N)=O)cccc21` [Example 114, 2-(cyclopropylamino)-4-(1-ethyl-1H-indol-4-ylamino)pyrimidine-5-carboxamide], the IC50 fell in the range of 100 to 1000 nM.

As to `NC(=O)c1cnc(N[C@@H]2CCCC(F)(F)[C@@H]2N)nc1Nc1cccc(-n2nccn2)c1` [Example 13], the 50% inhibitory concentration (IC50) lay in the range of 100 to 1000 nM.

In the case of `Cc1cccc(Nc2nc(N[C@@H]3C[C@@H](C(N)=O)CC[C@@H]3N)ncc2C(N)=O)c1` (racemic) [Example 243, 2-((1R,2S,5S)-2-amino-5-carbamoylcyclohexylamino)-4-(m-tolylamino)pyrimidine-5-carboxamide], the IC50 fell in the range of 100 to 1000 nM.

As to `NC(=O)c1cnc(N[C@@H]2CCN(C=O)C2)nc1Nc1cccc(-n2nccn2)c1` [Example 228], the IC50 is over 1000 nM.

Take `NC(=O)c1cnc(N[C@@H]2CCC[C@H](F)[C@@H]2N)nc1Nc1cccc(-n2nccn2)c1` [Example 235, 4-(3-(2H-1,2,3-triazol-2-yl)phenylamino)-2-((1R,2R,3S)-2-amino-3-fluorocyclohexylamino)pyrimidine-5-carboxamide]: the IC50 lay within 10 to 100 nM.

Regarding `COc1ccc(Nc2ncc(C(N)=O)c(NC3CCC(N)CC3)n2)cn1` (stereo in doubt) [Example 248, 4-(trans-4-aminocyclohexylamino)-2-(6-methoxypyridin-3-ylamino)pyrimidine-5-carboxamide], the IC50 was 100 to 1000 nM.

Consider `CCCc1cc2c(Nc3nc(N[C@@H]4CCCC[C@@H]4N)ncc3C(N)=O)cccc2n1C` [Example 102, 2-((1R,2S)-2-aminocyclohexylamino)-4-(1-methyl-2-propyl-1H-indol-4-ylamino)pyrimidine-5-carboxamide], for which the IC50 was 10 to 100 nM.

For the compound `NC(=O)c1cnc(Nc2ccc(Cl)cc2)nc1N[C@H]1CC[C@@H](N)CC1` [Example 186, 4-(4-aminocyclohexylamino)-2-(4-chlorophenylamino)pyrimidine-5-carboxamide], the half-maximal inhibitory concentration (IC50) lay within 10 to 100 nM.

`NC(=O)c1cnc(N[C@H](c2ccccc2)C2(N)CC2)nc1Nc1cccc(-n2nccn2)c1` [Example 149, (R)-4-(3-(2H-1,2,3-triazol-2-yl)phenylamino)-2-(1-(1-aminocyclopropyl)(phenyl)methylamino)pyrimidine-5-carboxamide]: the IC50 lay within 10 to 100 nM.

Regarding `Cc1ccc(Nc2nc(N[C@H]3[C@@H](N)CCCC3(F)F)ncc2C(N)=O)cc1` [Example 38, 2-(((1S,6S)-6-amino-2,2-difluorocyclohexyl)amino)-4-(p-tolylamino)pyrimidine-5-carboxamide], the IC50 was in the range of 10 to 100 nM.

Take `C[C@@H](Nc1ncc(C(N)=O)c(Nc2cccc(-n3cccn3)c2)n1)C1(N)CC1` [Example 143, (R)-4-(3-(1H-pyrazol-1-yl)phenylamino)-2-(1-(1-aminocyclopropyl)ethylamino)pyrimidine-5-carboxamide]: the IC50 lay within 1 to 10 nM.

Regarding `NC(=O)c1cnc(N[C@@H]2CCCC[C@@H]2N)nc1Nc1cccc(Oc2nc3ccccc3s2)c1` [Example 204], the 50% inhibitory concentration (IC50) was 10 to 100 nM.

With `NC(=O)c1cnc(N[C@@H]2CCCC(F)(F)[C@@H]2N)nc1Nc1ccccc1` [Example 27, 2-(((1R,2R)-2-amino-3,3-difluorocyclohexyl)amino)-4-(phenylamino)pyrimidine-5-carboxamide], the IC50 was 100 to 1000 nM.

Consider `NC(=O)c1cnc(N[C@H](CC2CC2)C(N)=O)nc1Nc1cnc2ccccc2c1` [Example 74, (R)-2-(1-amino-3-cyclopropyl-1-oxopropan-2-ylamino)-4-(quinolin-3-ylamino)pyrimidine-5-carboxamide], for which the IC50 is 10 to 100 nM.

Turning to `Cc1cccc(Nc2nc(N[C@H]3CC[C@@H](N)C3)ncc2C(N)=O)c1` [Example 118, 4-(m-toluidino)-2-((1S,3R)-3-aminocyclopentylamino)pyrimidine-5-carboxamide], the 50% inhibitory concentration (IC50) fell in the range of 100 to 1000 nM.

In the case of `COc1cccc(Nc2nc(N[C@H](CC3CC3)C(N)=O)ncc2C(N)=O)c1` [Example 63, (R)-2-((1-amino-3-cyclopropyl-1-oxopropan-2-yl)amino)-4-((3-methoxyphenyl)amino)pyrimidine-5-carboxamide], the IC50 lay in the range of 100 to 1000 nM.

With `NC(=O)c1cnc(N[C@@H]2CCCC[C@@H]2N)nc1Nc1cccc(-n2ncc[n+]2[O-])c1` [Example 251, 2-(3-((2-(((1R,2S)-2-aminocyclohexyl)amino)-5-carbamoylpyrimidin-4-yl)amino)phenyl)-2H-1,2,3-triazole 1-oxide], the IC50 lay in the range of 10 to 100 nM.

`Cc1cccc(Nc2nc(N[C@@H]3CC[C@@H](C(=O)O)C[C@@H]3N)ncc2C(N)=O)c1` (racemic) [Example 187, (1R,3S,4R)-3-amino-4-(5-carbamoyl-4-(m-tolylamino)pyrimidin-2-ylamino)cyclohexanecarboxylic acid]: the IC50 lay in the range of 1 to 10 nM.

As for `NC(=O)c1cnc(N[C@@H]2CCCC[C@@H]2CO)nc1Nc1cccc(-n2nccn2)c1` (racemic) [Example 256, 4-((3-(2H-1,2,3-triazol-2-yl)phenyl)amino)-2-(((1R,2S)-2-(hydroxymethyl)cyclohexyl)amino)pyrimidine-5-carboxamide], the IC50 was in the range of 100 to 1000 nM.

With `CC(C)[C@@H](Nc1ncc(C(N)=O)c(Nc2cccc(-c3ncccn3)c2)n1)C1(N)CC1` [Example 136, (R)-2-(1-(1-aminocyclopropyl)-2-methylpropylamino)-4-(3-(pyrimidin-2-yl)phenylamino)pyrimidine-5-carboxamide], the IC50 lay in the range of 1 to 10 nM.

On to `NC(=O)c1cnc(N[C@H]2CN[C@H](CO)C2)nc1Nc1cccc(-n2nccn2)c1` [Example 225], for which the IC50 is 100 to 1000 nM.

For `Cc1cccc(Nc2nc(NC3(CN)CC3)ncc2C(N)=O)c1` [Example 117, 4-(m-toluidino)-2-(1-(aminomethyl)cyclopropylamino)pyrimidine-5-carboxamide], the IC50 is 10 to 100 nM.

In the case of `Cc1cc(C)cc(Nc2nc(N[C@@H]3CCCC(F)(F)[C@@H]3N)ncc2C(N)=O)c1` [Example 33, 2-(((1R,2R)-2-amino-3,3-difluorocyclohexyl)amino)-4-((3,5-dimethylphenyl)amino)pyrimidine-5-carboxamide], the IC50 was 100 to 1000 nM.

`NC(=O)c1cnc(N[C@@H]2CCCC(=O)[C@@H]2N)nc1Nc1cccc(-n2nccn2)c1` (racemic) [Example 165]: the IC50 lay in the range of 100 to 1000 nM.

For `Cn1ncc2c(Nc3nc(N[C@@H]4CCC[C@H](F)[C@@H]4N)ncc3C(N)=O)cccc21` [Example 240, 2-((1R,2R,3S)-2-amino-3-fluorocyclohexylamino)-4-(1-methyl-1H-indazol-4-ylamino)pyrimidine-5-carboxamide], the IC50 lay in the range of 10 to 100 nM.

With `NC(=O)c1cnc(N[C@@H]2CCCC(F)(F)[C@@H]2N)nc1Nc1ccc2ncccc2c1` [Example 169, 2-((1R,2R)-2-amino-3,3-difluorocyclohexylamino)-4-(quinolin-6-ylamino)pyrimidine-5-carboxamide], the IC50 is 10 to 100 nM.

Consider `CCn1ccc2c(Nc3nc(NCC(C)C)ncc3C(N)=O)cccc21` [Example 116, 4-(1-ethyl-1H-indol-4-ylamino)-2-(isobutylamino)pyrimidine-5-carboxamide], for which the IC50 was 100 to 1000 nM.

Consider `NC(=O)c1cnc(N[C@@H]2CCOC[C@@H]2N)nc1Nc1ccc2ncccc2c1` [Example 180, 2-((3R,4R)-3-aminotetrahydro-2H-pyran-4-ylamino)-4-(quinolin-6-ylamino)pyrimidine-5-carboxamide], for which the IC50 is 1 to 10 nM.
